From ChEMBL document CHEMBL3217611, “Synthesis, cytotoxicity and hDHFR inhibition studies of 2H-pyrido[1,2-a]pyrimidin-2-ones” (Medchemcomm, 2013)

Legend:
A549 = test: Cytotoxicity against human A549 cells after 24 hrs by MTT assay; format: functional, cell-based; details: A549, 24 h
SK-N-SH = test: Cytotoxicity against human SK-N-SH cells after 24 hrs by MTT assay; format: functional, cell-based
MCF7 = test: Cytotoxicity against human MCF7 cells after 24 hrs by MTT assay; format: functional, cell-based; details: MCF7, 24 h
HepG2 = test: cells; details: Homo sapiens, HepG2, 24 h
Description: Cytotoxicity against human HepG2 cells after 24 hrs by MTT assay

HeLa = test: cells; details: Homo sapiens, 24 h
Description: Cytotoxicity against human HeLa cells after 24 hrs by MTT assay

Dihydrofolate reductase = biological target: T1, Dihydrofolate reductase (Homo sapiens, UniProt P00374); test: Inhibition of human DHFR assessed as depletion of NADPH after 30 secs shaking by spectrophotometry
T1 sequence (P00374 whole entry): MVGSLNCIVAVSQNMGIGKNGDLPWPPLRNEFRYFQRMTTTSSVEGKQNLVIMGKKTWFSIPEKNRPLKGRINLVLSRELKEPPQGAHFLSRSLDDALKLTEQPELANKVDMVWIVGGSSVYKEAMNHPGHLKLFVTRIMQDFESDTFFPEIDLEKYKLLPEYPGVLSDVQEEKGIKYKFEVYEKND

| SMILES | IC50 (A549) [µM] | IC50 (SK-N-SH) [µM] | IC50 (MCF7) [µM] | IC50 (HepG2) [µM] | IC50 (HeLa) [µM] | IC50 (Dihydrofolate reductase) [µM] |
| --- | --- | --- | --- | --- | --- | --- |
| CC1(C)OC2O[C@@H](Cc3cn4cc(Cl)ccc4nc3=O)C(OCc3ccccc3)C2O1 (stereo partly specified) | 182 | > 1000 | > 1000 | > 1000 | > 1000 | – |
| O=c1nc2ccccn2cc1Cc1ccc(F)cc1C(F)(F)F | > 1000 | 8.69 | 9.87 | 804 | 88 | 3.1 |
| O=c1nc2ccc(Br)cn2cc1Cc1ccc(Br)cc1 | 102 | 0.87 | 97.2 | > 1000 | 931 | – |
| O=c1nc2ccccn2cc1Cc1ccc(Br)cc1 | > 1000 | 163 | 157 | > 1000 | > 1000 | – |
| O=c1nc2ccc(Cl)cn2cc1Cc1ccc(F)cc1 | 98.3 | 9.86 | 10.4 | > 1000 | > 1000 | – |
| O=c1nc2ccc(Cl)cn2cc1Cc1ccc(F)cc1C(F)(F)F | > 1000 | 106 | 181 | > 1000 | > 1000 | – |
| COc1ccc(Cc2cn3cc(Br)ccc3nc2=O)cc1 | > 1000 | 0.94 | > 1000 | > 1000 | 928 | – |
| O=c1nc2ccc(Cl)cn2cc1Cc1ccc(Oc2nc(Cl)c(Cl)cc2Cl)cc1 | > 1000 | 8.69 | 96.9 | 992 | > 1000 | – |
| O=c1nc2ccc(Br)cn2cc1Cc1ccccc1 | > 1000 | 137 | > 1000 | > 1000 | 152 | – |
| O=C1N=C2C=CC=CN2CC1C(O)c1cccs1 (stereo unspecified) | 248 | > 1000 | 166 | > 1000 | 166 | – |
| O=c1nc2ccc(Br)cn2cc1Cc1cccc(Oc2nc(Cl)c(Cl)cc2Cl)c1 | > 1000 | 9.24 | 9.77 | > 1000 | > 1000 | 2.73 |
| Nc1cccn2cc(Cc3ccccc3)c(=O)nc12 | 98 | 116 | 105 | 131 | 112 | 8.72 |
| O=c1nc2ccccn2cc1Cc1cccc(Oc2ccccc2)c1 | > 1000 | 141 | 243 | > 1000 | > 1000 | – |
| O=c1nc2ccccn2cc1Cc1ccc(F)cc1 | > 1000 | 125 | 200 | > 1000 | 139 | – |
| Cc1ccc(Cc2cn3cc(Cl)ccc3nc2=O)cc1 | > 1000 | 0.86 | > 1000 | > 1000 | > 1000 | – |
| O=c1nc2ccc(Cl)cn2cc1Cc1ccc([N+](=O)[O-])cc1 | > 1000 | 0.94 | > 1000 | > 1000 | 928 | – |
| Nc1cc(Br)cn2cc(Cc3ccccc3)c(=O)nc12 | > 1000 | 149 | > 1000 | > 1000 | > 1000 | – |
| Nc1cc(Br)cn2cc(Cc3ccc(F)cc3C(F)(F)F)c(=O)nc12 | > 1000 | 133 | 151 | > 1000 | > 1000 | – |
| O=c1nc2ccccn2cc1Cc1ccccc1 | 104 | 95.4 | 75.4 | > 1000 | > 1000 | – |
| CC1(C)OC2O[C@@H](Cc3cn4ccccc4nc3=O)C(OCc3ccccc3)C2O1 (stereo partly specified) | 199 | > 1000 | > 1000 | > 1000 | > 1000 | – |
| Nc1cccn2cc(Cc3ccc(F)cc3)c(=O)nc12 | > 1000 | 126 | 135 | > 1000 | > 1000 | – |
| O=c1nc2ccc(Br)cn2cc1Cc1ccc(Cl)cc1 | 105 | 0.94 | > 1000 | > 1000 | > 1000 | – |
| COc1cccc2c1C(=O)c1c(O)c3c(c(O)c1C2=O)C[C@@](O)(C(=O)CO)C[C@@H]3O[C@H]1C[C@H](N)[C@H](O)[C@H](C)O1 [DOXORUBICIN] | 10.6 | 10.9 | – | – | 1.12 | – |
